This is an account of results in patent EP0643053A1, “Process for the manufacture of phenoxyphenoxyalkyl derivatives” (CIBA-GEIGY AG, priority 1993, dated 1995).

Where only a bound is given, the exact number is not on record here.

Format in all cases: in vivo
The test system of assay [1] is Aonidiella aurantii crawlers. The experiment in a line: Activity against Aonidiella aurantii on Citrus trifoliata cuttings (spray). The following applies: 50 ppm of active ingredient; Citrus trifoliata cuttings sprayed to drip point; after 10 to 12 weeks; isomer ratios A, B and C used. The text has this: (§1) The active ingredient is used, in each case, in three different isomer ratios A, B and C: A = 37.8 % of 2R,4S-isomer IIIa, 37.8% of 2S,4R-isomer IIIb, 12.2% of 2R,4R-isomer IIIc and 12.2% of 2S,4S-isomer IIId; B = 40.2% of 2R,4S-isomer IIIa, 40.2% of 2S,4R-isomer IIIb, 9.8% of 2R,4R-isomer IIIc and 9.8% of 2S,4S-isomer IIId; and C = 36.7% of 2R,4S-isomer IIIa, 36.7% of 2S,4R-isomer IIIb, 13.3% of 2R,4R-isomer IIIc and 13.3% of 2S,4S-isomer IIId. Example B3: Activity against Aonidiella aurantii Citrus trifoliata cuttings are populated with Aonidiella aurantii crawlers. After about 2 weeks, the cuttings are sprayed to drip point with an aqueous emulsion spray mixture comprising 50 ppm of active ingredient. To evaluate the experiment after 10 to 12 weeks, the survival rate of the crawlers of the first subsequent generation of the treated population is compared with that of untreated control batches. In this test, the compound of the formula III has an activity of over 80%.

The test system of assay [2] is Aonidiella aurantii crawlers. Briefly: Activity against Aonidiella aurantii on potato tubers (immersion). The following applies: 400 ppm of active ingredient; potato tubers immersed in aqueous emulsion or suspension spray mixture; after 10 to 12 weeks; isomer ratios A, B and C used.
From the text: as §1, with “B2:” for “B3:”, “Potato tubers” for “Citrus trifoliata cuttings”, “potatoes” for “cuttings”, “immersed into” for “sprayed to drip point with”, “or suspension spray mixture which comprises 400” for “comprising 50”, “ingredient. After the tubers have dried, they are incubated in a plastic container.” for “ingredient.”

Assay [3] relates to Nilaparvata lugens. Briefly: Activity against Nilaparvata lugens (systemic), rice plants in pots. The following applies: 144 h, 10 ppm of active ingredient in aqueous emulsion solution, larvae in the 2nd and 3rd stages, after 6 days, isomer ratios A, B and C used, read-out: percentage reduction in population (% activity). An excerpt:
The active ingredient is used, in each case, in three different isomer ratios A, B and C: A = 37.8 % of 2R,4S-isomer IIIa, 37.8% of 2S,4R-isomer IIIb, 12.2% of 2R,4R-isomer IIIc and 12.2% of 2S,4S-isomer IIId; B = 40.2% of 2R,4S-isomer IIIa, 40.2% of 2S,4R-isomer IIIb, 9.8% of 2R,4R-isomer IIIc and 9.8% of 2S,4S-isomer IIId; and C = 36.7% of 2R,4S-isomer IIIa, 36.7% of 2S,4R-isomer IIIb, 13.3% of 2R,4R-isomer IIIc and 13.3% of 2S,4S-isomer IIId. Example B6: Activity against Nilaparvata lugens (systemic) Pots containing rice plants are placed into an aqueous emulsion solution comprising 10 ppm of active ingredient. The plants are subsequently populated with larvae in the 2nd and 3rd stages. The test is evaluated after 6 days. The percentage reduction in population (% activity) is determined by comparing the number of plant hoppers on the treated and untreated plants. In this test, the compound of the formula III has an activity of over 80%.

The next assay has as its system Cydia pomonella eggs. The experiment in a line: Activity against Cydia pomonella (ovicidal), egg immersion test. The following applies: 144 h, 400 ppm of active ingredient in acetone/water, eggs on filter paper immersed, after 6 days, vs untreated control, isomer ratios A, B and C used, read-out: activity (% reduction in hatching rate). An excerpt:
(§2) The active ingredient is used, in each case, in three different isomer ratios A, B and C: A = 37.8 % of 2R,4S-isomer IIIa, 37.8% of 2S,4R-isomer IIIb, 12.2% of 2R,4R-isomer IIIc and 12.2% of 2S,4S-isomer IIId; B = 40.2% of 2R,4S-isomer IIIa, 40.2% of 2S,4R-isomer IIIb, 9.8% of 2R,4R-isomer IIIc and 9.8% of 2S,4S-isomer IIId; and C = 36.7% of 2R,4S-isomer IIIa, 36.7% of 2S,4R-isomer IIIb, 13.3% of 2R,4R-isomer IIIc and 13.3% of 2S,4S-isomer IIId. Example B4: Activity against Cydia pomonella (ovicidal) Cydia pomonella eggs which have been deposited on filter paper are briefly immersed into a test solution of 400 ppm of active ingredient in acetone/water. After the test solution has dried on, the eggs are incubated in Petri dishes. After 6 days, the percentage hatching rate of the eggs is evaluated by comparison with untreated control batches (% reduction in hatching rate). In this test, the compound of the formula III has an activity of over 80%.

The subject of assay [4] is Adoxophyes reticulana eggs. The experiment in a line: Activity against Adoxophyes reticulana (ovicidal), egg immersion test. The following applies: 144 h; 400 ppm of active ingredient in acetone/water; eggs on filter paper immersed; after 6 days; vs untreated control; isomer ratios A, B and C used; read-out: activity (% reduction in hatching rate).
From the text: as §2, with “B1:” for “B4:”, “Adoxophyes reticulana” for “Cydia pomonella”

In assay [5] the test system is Nilaparvata lugens. Briefly: Activity against Nilaparvata lugens on sprayed rice plants. The following applies: 504 h, 400 ppm of active ingredient, larvae in the 2nd and 3rd stages, after 21 days, isomer ratios A, B and C used, read-out: percentage reduction in population (% activity). The text has this: The active ingredient is used, in each case, in three different isomer ratios A, B and C: A = 37.8 % of 2R,4S-isomer IIIa, 37.8% of 2S,4R-isomer IIIb, 12.2% of 2R,4R-isomer IIIc and 12.2% of 2S,4S-isomer IIId; B = 40.2% of 2R,4S-isomer IIIa, 40.2% of 2S,4R-isomer IIIb, 9.8% of 2R,4R-isomer IIIc and 9.8% of 2S,4S-isomer IIId; and C = 36.7% of 2R,4S-isomer IIIa, 36.7% of 2S,4R-isomer IIIb, 13.3% of 2R,4R-isomer IIIc and 13.3% of 2S,4S-isomer IIId. Example B5: Activity against Nilaparvata lugens Rice plants are sprayed with an aqueous emulsion spray mixture comprising 400 ppm of active ingredient. After the spray coating has dried on, the plants are populated with plant hopper larvae in the 2nd and 3rd stages. The test is evaluated after 21 days. The percentage reduction in population (% activity) is determined by comparing the number of surviving plant hoppers on the treated and untreated plants. In this test, the compound of the formula III has an activity of over 80%.

As for `CCC1OCC(COc2ccc(Oc3ccccc3)cc2)O1` (racemic) [compound of the formula III, 2-ethyl-4-(4-phenoxyphenoxymethyl)-1,3-dioxolane], the “activity (survival rate of the crawlers of the first subsequent generation compared with untreated control)” value in assay [1] and in assay [2] was “over 80%” throughout. In addition, in the assay with Nilaparvata lugens [3], the activity at 10 ppm was over 80%. Further, the activity at 400 ppm (with Cydia pomonella eggs; in assay [4]; in the assay on Nilaparvata lugens [5]) was over 80% each time.
